# From patent US11414387B2, “Oxoacridinyl acetic acid derivatives and methods of use” (Stingthera, Inc., priority 2017, dated 2022)
# Key:
# hSTING-CTD = hSTING-CTD (Homo sapiens (Human), UniProt Q86WV6); test: Human STING protein FP competition concentration response assay; format: binding
# In short: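 Compound, serially diluted 2-fold over 14 concentrations, competes with 2′-Fluo-AHC-c-di-GMP (30 nM) for binding to hSTING-CTD (10 uM) in PBS with 3.35% DMSO at room temperature for 10-20 min. Anisotropy change gives IC50 by sigmoidal four-parameter regression.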
# mSTING-CTD = mSTING-CTD (Mus musculus (Mouse), UniProt Q3TBT3); test: Mouse STING protein FP competition concentration response assay; format: binding
# mSTING-CTD, sequence (Q3TBT3 134-378): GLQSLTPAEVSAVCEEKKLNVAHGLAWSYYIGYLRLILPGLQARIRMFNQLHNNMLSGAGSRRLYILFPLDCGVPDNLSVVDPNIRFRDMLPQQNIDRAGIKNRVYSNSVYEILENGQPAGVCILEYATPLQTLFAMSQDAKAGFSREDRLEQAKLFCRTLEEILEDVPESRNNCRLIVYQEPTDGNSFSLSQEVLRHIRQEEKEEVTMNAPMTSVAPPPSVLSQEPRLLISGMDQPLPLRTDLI
# Description: A validated STING ligand, such as c-di-GMP, which is labeled with a read-out signal (e.g., a fluorescence signal such as fluorescein), is mixed with STING-CTD (e.g., mouse STING-CTD or human STING-CTD) with or without the presence of a compound of the present application. Changes in the read-out signal are measured (e.g., by fluorescence anisotropy) to determine the binding of the compound to STING-CTD.
# Fluorescein labeled c-di-GMP was mixed with mSTING-CTD with or without the presence of a compound of the present application in PBS in black 384-well plates (10 μL per well). The fluorescence anisotropy was determined on a PerkinElmer EnVisions multi-mode plate reader. The plate can be read immediately after mixing the reagents or after a few hours without change of signals.
# • 1) 6×his-sumo-mSTING (Supplier: HDB) • 2) 2′-Fluo-AHC-c-di GMP (BIOLOG #F009) • 3) 23-cGAMP (BIOLOG #C161) • 4) DMXAA (InvivoGen #tlrl-dmx) • 5) DMSO (Sigma. #D5879-100 mL) • 6) 10×PBS(HDB #MCP-020) • 7) Assay plate, 384-well black plate, solid black bottom (Greiner #784076) • 8) Compound dilution intermediate plate, 384 LDV plate (Labcyte #LP-0200) • 9) Liquid handler, ECHO550 (Labcyte) • 10) Liquid handler, Bravo (Aglient) • 11) Reader, Envision (PerkinElmer) • 12) Centrifuge (Eppendorf) • 13) Multichannel Pipette (Raining) • 14) 10 ml Reservoir (Corning) • 15) 15 ml centrifuge tube (Corning) • 16) Adhesive Plate seals (BioRad) Compound Preparation • a) Containers of each compound were centrifuged at 1000 rpm for 5 min. • b) Compounds were dissolved in DMSO at 30 mM. • c) Compounds were sufficiently vortexed, and centrifuged at 1000 rpm for 1 min. • d) 16 uL of the compound solution was transferred into a LDV Compound Plate. • e) 2-fold serial dilutions of the compound solution were made with DMSO, and 14 concentrations were made in the 384-well LDV Compound Plate. • f) The LDV plate was spun at 1000 rpm for 60 sec and sealed with foil (stored at −20° C. if not used immediately). • g) 335 nL of each compound from the LDV Compound Plate was transferred to Assay Plate (ECHO550). Probe Preparation • a) 200 uM probe stock (2′-Fluo-AHC-c-diGMP) was diluted by dd2O to 6 uM working concentration. • b) 10-12 uL 6 uM working solution of probe was transferred into the LDV plate. • c) 50 nL per well 6 uM working solution of probe was transferred from the LDV plate to each well of the empty Assay Plate (Greiner 784076) by ECHO550 Buffer mode. • d) Probe final concentration was 30 nM when assay system was 10 uL. • e) The Assay Plate was spun at 1000 rpm for 1 min. Compound Addition • a) After the LDV Compound Plate was prepared, 100 nL compound (ECHO550 DMSO mode) was transferred from the LDV Compound Plate into the Assay Plate (Greiner 784076) containing 50 nL probe in each well according to the Assay Plate layout. • b) DMSO final concentration was 1% when assay system was 10 uL. • c) The Assay Plate was spun at 1000 rpm for 1 min. Protein Addition • a) Aliquot of 6×his-sumo-mSTING protein was thawed on ice, briefly to generate uniform solution. • b) 66 uM stock protein was diluted in 1×PBS assay buffer to generate 8 uM final solutions. • c) For test compound and ZPE wells, 10 μL per well of 8 uM protein solutions was added into the Assay Plate containing both the probe and test compounds or DMSO using multichannel pipette. • d) For HPE wells, 10 µL/well of 1×PBS assay buffer instead of protein was added into the Assay Plate containing both the probe and DMSO using multichannel pipette. • e) The Assay Plate was spun at 1000 rpm for 1 min. • f) The Assay Plate was incubated at r.t. for 10-20 min.
# The EnVision plate reader was used to record the FA value of each well immediately after mixing the reagents or after a few hours without change of signals.
# The raw data and calculated data (Fluorescence anisotropy (FA)) was exported from the EnVision reader. […]
# hSTING-R232 = hSTING-R232 (Homo sapiens (Human), UniProt Q86WV6, H232R); test: STING differential scanning fluorimetry (DSF) assay, WT human STING; settings: WT (R232) human STING aa140-379, net shift in melting temperature
# hSTING-R232, sequence (Q86WV6 140-379 H232R): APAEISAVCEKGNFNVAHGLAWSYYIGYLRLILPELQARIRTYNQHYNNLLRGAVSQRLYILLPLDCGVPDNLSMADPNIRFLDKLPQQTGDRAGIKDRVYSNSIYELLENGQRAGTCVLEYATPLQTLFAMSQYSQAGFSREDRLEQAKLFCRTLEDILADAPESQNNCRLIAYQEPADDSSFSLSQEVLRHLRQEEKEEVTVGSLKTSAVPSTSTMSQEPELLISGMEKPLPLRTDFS
# Description: (§1) A STING DSF assay was performed to determine protein thermostability shift in response to small molecule ligand binding. A STING thermostability shift assay based on differential scanning fluorimetry was used to measure (1) the net shift in melting temperature (ΔTm)between the apo and ligand-bound states of the STING protein and (2) the concentration of the thermal denaturation transition (EC50) as a surrogate measure of binding affinity (K). […] Protein in assay buffer was transferred to a 384 well plate and incubated with the hydrophobic fluorescent dye SYBR Orange. A temperature ramp was applied to the plate and the resulting dye fluorescence was plotted as a function of temperature. The first derivative of this function (dF/dT) was then used to extrapolate the melting temperature of the protein at various concentrations of compound and determine the thermal denaturation profile of a protein/compound complex.
# (§2) • 1. Protein construct (affinity tag removal vs SUMO-fusion construct) • 2. Protein concentration • 3. Dye concentration • 4. Buffer • 5. Thermal ramp velocity • 6. DMSO tolerance • 7. Compound titration parameters • 8. […] 5 μM purified Target STING Protein • 3. 8 μM Sypro Orange Dye • 4. Buffer: 100 mM NaCl, 30 mM HEPES, pH 7.5 • 5. Thermal Ramp: 0.5° C./min • 6. <1% DMSO • 7. 11 point, 2 fold dilution, duplicate, 300 μM high concentrations • 8.
# hSTING-WT = hSTING-WT (Homo sapiens (Human), UniProt Q86WV6, H232R); test: Radiometric filtration binding competition assay, hSTING-WT
# hSTING-WT, sequence (Q86WV6 140-379 H232R): as above
# mSTING-R232 = mSTING-R232 (Mus musculus, UniProt Q3TBT3); test: STING differential scanning fluorimetry (DSF) assay, mouse STING; settings: net shift in melting temperature
# Description: as §1, §2
# mSTING = mSTING (Mus musculus, UniProt Q3TBT3); test: Radiometric filtration binding competition assay, mSTING
# Description: (§3) A radiometric filtration binding competition assay was performed to quantify the binding affinity of compounds of the present application for the human or mouse STING protein, or associated HAQ human isoform. […] The resulting dose response was fit by non-linear regression to determine an IC50 value, from which a Ki value for each compound was extrapolated.
# (§4) The resulting complexes were then filtered, dried, and scintillation fluid was added and the remaining radio signal was measured to determine the degree of compound ligand inhibition. This assay format was optimized for both the WT and HAQ isoforms of the human protein and the mouse orthologue protein.
# (§5) Probe Concentration: Minimum concentration that achieved max assay window • g. Assay Format: Scintillation Proximity Bead or Filtration Binding Plate • h. […] Assay incubation times for successive incubation steps
# (§6) WT-hSWAT: WT_FBA_HIS-SUMO-hSWAT IC50 (μM) (“WT”=Wild-type); HAQ-hSWAT: HAQ_FBA_HIS-SUMO-hSWAT IC50 (μM) (“HAQ”=human HAQ allele of STING protein); and WT-mSWAT: MOUSE_FBA_HIS-SUMO-mnSWAT IC50 (μM) which is the mouse isoform of STING protein.
# hSTING-HAQ [1] = target: T1, hSTING-HAQ (Homo sapiens (Human), UniProt Q86WV6, G230A/H232R/R293Q); test: STING differential scanning fluorimetry (DSF) assay, HAQ human STING; settings: HAQ human STING aa140-379, net shift in melting temperature
# T1 sequence (Q86WV6 140-379 G230A/H232R/R293Q): as the sequence (Q86WV6 140-379 H232R) above, with G91A, R154Q counted along it
# Description: as §1, §2
# STING protein = STING protein (Homo sapiens (Human), UniProt Q86WV6, H232R); test: Cell based reporter assay of IRF activation (IRF-luciferase), THP1-dual-KI R232; settings: read-out: THP1-dual-KI R232_IRF(Luciferase)_Activity Maximum measured (%)
# STING protein, sequence (Q86WV6 whole entry H232R): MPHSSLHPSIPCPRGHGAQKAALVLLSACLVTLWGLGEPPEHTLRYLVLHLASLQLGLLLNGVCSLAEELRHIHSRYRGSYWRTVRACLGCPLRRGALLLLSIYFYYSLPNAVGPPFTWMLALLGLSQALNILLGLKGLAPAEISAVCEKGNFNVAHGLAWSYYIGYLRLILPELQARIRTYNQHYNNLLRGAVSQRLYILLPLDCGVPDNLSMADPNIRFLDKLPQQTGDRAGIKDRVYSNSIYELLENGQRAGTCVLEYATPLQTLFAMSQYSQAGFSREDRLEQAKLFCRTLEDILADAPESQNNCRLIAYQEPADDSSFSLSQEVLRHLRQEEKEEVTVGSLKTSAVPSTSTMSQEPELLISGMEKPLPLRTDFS
# Description: Briefly, THP-1 monocytes were transfected and selected for stable integration of 2 reporter constructs. Clones incorporating stably integrated vectors were further selected by antibiotic resistance to blastocidin and zeocin. The reporter constructs included: (1) firefly luciferase reporter gene under the control of an ISG54 promoter fused to five interferon (IFN)-stimulated response elements to measure IRF transcription factor binding activity and (2) secreted embryonic alkaline phosphatase reporter gene under transcription control of an IFN-beta minimal promoter fused to 5 copies of the NFkB consensus transcriptional response element and 3 copies of the c-Rel binding site.
# The resulting THP-1 cell line was further modified to incorporate 3 amino acid point mutations (H71R A230G Q293R). This modification of the native TMEM173 gene in THP-1 cells (HAQ) was designed to produce a cell reporter that expressed the most common allelic variant in the human population (THP-1 R232, available from InvivoGen). Alternatively, the TMEM173 gene was knocked out to provide a congenic control to counter-screen for compound activation that was independent of the STING protein (THP-1 STING KO).
# Once cell lines were established, reporter assay protocols were developed and optimized to screen small molecule compounds for agonist activity. Assay optimization for efficacy and Z′ value included titration of the following parameters:
# • 1. Cell pre-activation with PMA • 2. Cell seeding density • 3. DMSO tolerance • 4. Media selection • 5. FBS concentration • 6. Incubation time • 7. Co-Assessment of cell viability by CTG assay • 8. Appropriate HPE and ZPE controls • 9. Dose Response Titration Final Assay SOP Conditions • 1. No pre-activation with PMA • 2. 5×10^4 cells/well in 96 well plate format • 3. <0.5% DMSO • 4. […] 10% FBS • 6. 14-18 hr incubation • 7. Cell Titer Glo reagent (Promega) following supernatant removal • 8.
# hSTING-HAQ [2] = target: T1, hSTING-HAQ; test: Radiometric filtration binding competition assay, hSTING-HAQ
# Description: as §3, §4, §5, §6
# hSTING-CTD, sequence (Q86WV6 135-379): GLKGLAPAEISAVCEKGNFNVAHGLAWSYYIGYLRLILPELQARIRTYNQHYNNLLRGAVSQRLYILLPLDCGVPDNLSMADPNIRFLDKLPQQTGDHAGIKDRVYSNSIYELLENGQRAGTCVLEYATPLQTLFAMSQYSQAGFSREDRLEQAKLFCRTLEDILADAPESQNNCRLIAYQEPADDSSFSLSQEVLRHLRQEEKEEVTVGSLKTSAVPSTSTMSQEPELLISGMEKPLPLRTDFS
SMILES,IC50 (hSTING-CTD) [µM],IC50 (mSTING-CTD) [µM],WT_DSF_hSWAT Tm Shift (° C.) (hSTING-R232),IC50 (hSTING-WT) [µM],MOUSE DSF_6xHIS-SUMO Tm Shift (° C.) (mSTING-R232),IC50 (mSTING) [µM],HAQ_DSF_hSWAT Tm Shift (° C.) (hSTING-HAQ [1]),Emax (STING protein) [%],IC50 (hSTING-HAQ [2]) [µM]
O=C(O)Cn1c2ccccc2c(=O)c2ccc(Cl)c(Cl)c21 [Compound 13],100 to 500,10 to 50,B (“B” = 0-2° C.),> 300,C (“C” = 5-15° C.),> 300,–,–,–
O=C(O)Cn1c2cc(C3CCCC3)ccc2c(=O)c2ccc(Cl)c(Cl)c21 [Compound 113],–,–,"C (“C” = 2-7° C,)",20 to 100,D (“D” > 15° C.),< 20,"C (“C” = 2-7° C,)",5 to 25,–
CC1(C)CCC(c2ccc3c(=O)c4ccc(Cl)c(Cl)c4n(CC(=O)O)c3c2)CC1 [Compound 160],–,–,B (“B” = 0-2° C.),20 to 100,D (“D” > 15° C.),–,B (“B” = 0-2° C.),5 to 25,–
O=C(O)Cn1c2cc(-c3cccc(C(F)(F)F)c3)ccc2c(=O)c2ccc(Cl)c(Cl)c21 [Compound 161],–,–,B (“B” = 0-2° C.),20 to 100,D (“D” > 15° C.),–,B (“B” = 0-2° C.),< 5,–
Cc1ccc(-c2ccc3c(=O)c4ccc(Cl)c(Cl)c4n(CC(=O)O)c3c2)cc1Cl [Compound 164],–,–,B (“B” = 0-2° C.),20 to 100,D (“D” > 15° C.),–,B (“B” = 0-2° C.),–,–
O=C(O)Cn1c2cc(-c3ccccc3)ccc2c(=O)c2ccc(Cl)c(Br)c21 [Compound 177],–,–,"C (“C” = 2-7° C,)",20 to 100,–,20 to 100,–,< 5,100 to 300
O=C(O)Cn1c2cc(Nc3ccccc3)ccc2c(=O)c2ccc(Cl)c(Cl)c21 [Compound 181],–,–,D (“D” > 7° C.),< 20,D (“D” > 15° C.),< 20,–,> 50,20 to 100
CC(C)c1ccc2c(=O)c3ccc(Cl)c(C(F)(F)F)c3n(CC(=O)O)c2c1 [Compound 192],–,–,A (“A” < 0° C.),20 to 100,B (“B” = 0-5° C.),100 to 300,–,< 5,20 to 100
C#Cc1c(Cl)ccc2c(=O)c3ccccc3n(CC(=O)O)c12 [Compound 197],–,–,"C (“C” = 2-7° C,)",> 300,–,–,–,< 5,> 300
COc1c(Cl)ccc2c(=O)c3ccc(C(C)(C)C)cc3n(CC(=O)O)c12 [Compound 204],–,–,D (“D” > 7° C.),< 20,–,< 20,D (“D” > 7° C.),> 50,20 to 100
CSc1c(Cl)ccc2c(=O)c3ccccc3n(CC(=O)O)c12 [Compound 212],–,–,"C (“C” = 2-7° C,)",100 to 300,–,100 to 300,–,–,> 300
CSc1c(Cl)ccc2c(=O)c3ccc(C(C)(C)C)cc3n(CC(=O)O)c12 [Compound 215],–,–,D (“D” > 7° C.),< 20,–,< 20,D (“D” > 7° C.),> 50,< 20
O=C(O)Cn1c2cc(Nc3ncccn3)ccc2c(=O)c2ccc(Cl)c(Cl)c21 [Compound 216],–,–,"C (“C” = 2-7° C,)",20 to 100,D (“D” > 15° C.),< 20,–,> 50,20 to 100
O=C(O)Cn1c2cc(Nc3cnccn3)ccc2c(=O)c2ccc(Cl)c(Cl)c21 [Compound 217],–,–,D (“D” > 7° C.),20 to 100,–,< 20,D (“D” > 7° C.),> 50,100 to 300
O=C(O)Cn1c2cc(Nc3ccc(F)cc3)ccc2c(=O)c2ccc(Cl)c(Cl)c21 [Compound 218],–,–,–,< 20,D (“D” > 15° C.),< 20,D (“D” > 7° C.),> 50,20 to 100
COc1c(Cl)ccc2c(=O)c3ccc(C4=CCCCC4)cc3n(CC(=O)O)c12 [Compound 219],–,–,D (“D” > 7° C.),< 20,–,< 20,–,–,20 to 100
COc1c(Cl)ccc2c(=O)c3ccc(C4CCCCC4)cc3n(CC(=O)O)c12 [Compound 220],–,–,D (“D” > 7° C.),< 20,–,20 to 100,D (“D” > 7° C.),> 50,20 to 100
O=C(O)Cn1c2cc(Nc3ccc(F)cc3F)ccc2c(=O)c2ccc(Cl)c(Cl)c21 [Compound 221],–,–,D (“D” > 7° C.),< 20,–,–,D (“D” > 7° C.),> 50,20 to 100
O=C(O)Cn1c2cc(-c3ccc(O)cc3)ccc2c(=O)c2ccc(Cl)c(Cl)c21 [Compound 223],–,–,"C (“C” = 2-7° C,)",20 to 100,–,< 20,D (“D” > 7° C.),< 5,20 to 100
CC(C)c1ccc2c(=O)c3ccc(Cl)c(Br)c3n(CC(=O)NS(C)(=O)=O)c2c1 [Compound 350],–,–,"C (“C” = 2-7° C,)",100 to 300,–,–,"C (“C” = 2-7° C,)",< 5,–
Cc1ccc(S(=O)(=O)NC(=O)Cn2c3cc(C(C)C)ccc3c(=O)c3ccc(Cl)c(Cl)c32)cc1 [Compound 351],–,–,A (“A” < 0° C.),20 to 100,–,–,A (“A” < 0° C.),< 5,–
